Usually residual activity stands for the signal under treatment as a percentage of the control signal.

The values below come from ChEMBL document CHEMBL5649166, “RIP3 induces apoptosis independent of pronecrotic kinase activity” (Mol Cell, 2014).

The structures appear in SMILES notation.

Assay [1] has as its target BDNF/NT-3 growth factors receptor (Homo sapiens) (UniProt Q16620). The experiment in a line: Residual activity of human TRKB using poly[Glu:Tyr] (4:1) as substrate at 1 uM in presence of 32P-ATP by Hotspot assay relative to control.
The target of assay [2] is STE20/SPS1-related proline-alanine-rich protein kinase (Homo sapiens) (UniProt Q9UEW8). Description: Residual activity of human STK39/STLK3 using myelin basic protein as substrate at 1 uM in presence of 32P-ATP by Hotspot assay relative to control.
Assay [3] has as its target G protein-coupled receptor kinase 4 (Homo sapiens) (UniProt P32298). The experiment in a line: Inhibition of human GRK4 using casein as substrate at 1 uM in presence of 32P-ATP by Hotspot assay relative to control; values are per cent of control.
The target in assay [4] is Tyrosine-protein kinase Fer (Homo sapiens) (UniProt P16591). Description: Inhibition of human FER using poly[Glu:Tyr] (4:1) as substrate at 1 uM in presence of 32P-ATP by Hotspot assay relative to control; values are per cent of control.
Sequence of Tyrosine-protein kinase Fer (Homo sapiens) (P16591 whole entry, looked up): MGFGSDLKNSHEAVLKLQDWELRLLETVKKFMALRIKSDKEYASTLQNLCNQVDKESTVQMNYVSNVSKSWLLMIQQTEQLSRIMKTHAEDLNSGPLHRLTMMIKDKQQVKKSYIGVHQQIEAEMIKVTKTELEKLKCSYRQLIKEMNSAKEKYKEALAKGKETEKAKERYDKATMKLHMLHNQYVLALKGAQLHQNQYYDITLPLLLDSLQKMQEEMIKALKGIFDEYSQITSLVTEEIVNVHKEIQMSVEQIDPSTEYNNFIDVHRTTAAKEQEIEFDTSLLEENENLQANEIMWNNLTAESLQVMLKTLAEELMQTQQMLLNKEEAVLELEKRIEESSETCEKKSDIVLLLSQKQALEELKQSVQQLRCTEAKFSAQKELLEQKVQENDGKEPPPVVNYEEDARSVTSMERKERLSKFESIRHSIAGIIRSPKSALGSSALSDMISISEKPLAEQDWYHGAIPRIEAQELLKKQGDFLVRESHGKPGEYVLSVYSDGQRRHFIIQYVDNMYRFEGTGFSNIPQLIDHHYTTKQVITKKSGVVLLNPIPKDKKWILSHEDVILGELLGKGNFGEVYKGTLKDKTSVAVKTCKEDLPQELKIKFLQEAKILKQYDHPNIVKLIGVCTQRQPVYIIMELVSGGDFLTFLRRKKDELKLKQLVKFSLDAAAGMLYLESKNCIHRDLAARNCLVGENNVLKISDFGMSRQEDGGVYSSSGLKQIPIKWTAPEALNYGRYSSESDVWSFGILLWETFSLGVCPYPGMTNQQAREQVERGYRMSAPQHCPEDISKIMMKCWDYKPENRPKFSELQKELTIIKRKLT
The target in assay [5] is T1, Dual serine/threonine and tyrosine protein kinase (Homo sapiens) (UniProt Q6XUX3).
T1 sequence (whole entry): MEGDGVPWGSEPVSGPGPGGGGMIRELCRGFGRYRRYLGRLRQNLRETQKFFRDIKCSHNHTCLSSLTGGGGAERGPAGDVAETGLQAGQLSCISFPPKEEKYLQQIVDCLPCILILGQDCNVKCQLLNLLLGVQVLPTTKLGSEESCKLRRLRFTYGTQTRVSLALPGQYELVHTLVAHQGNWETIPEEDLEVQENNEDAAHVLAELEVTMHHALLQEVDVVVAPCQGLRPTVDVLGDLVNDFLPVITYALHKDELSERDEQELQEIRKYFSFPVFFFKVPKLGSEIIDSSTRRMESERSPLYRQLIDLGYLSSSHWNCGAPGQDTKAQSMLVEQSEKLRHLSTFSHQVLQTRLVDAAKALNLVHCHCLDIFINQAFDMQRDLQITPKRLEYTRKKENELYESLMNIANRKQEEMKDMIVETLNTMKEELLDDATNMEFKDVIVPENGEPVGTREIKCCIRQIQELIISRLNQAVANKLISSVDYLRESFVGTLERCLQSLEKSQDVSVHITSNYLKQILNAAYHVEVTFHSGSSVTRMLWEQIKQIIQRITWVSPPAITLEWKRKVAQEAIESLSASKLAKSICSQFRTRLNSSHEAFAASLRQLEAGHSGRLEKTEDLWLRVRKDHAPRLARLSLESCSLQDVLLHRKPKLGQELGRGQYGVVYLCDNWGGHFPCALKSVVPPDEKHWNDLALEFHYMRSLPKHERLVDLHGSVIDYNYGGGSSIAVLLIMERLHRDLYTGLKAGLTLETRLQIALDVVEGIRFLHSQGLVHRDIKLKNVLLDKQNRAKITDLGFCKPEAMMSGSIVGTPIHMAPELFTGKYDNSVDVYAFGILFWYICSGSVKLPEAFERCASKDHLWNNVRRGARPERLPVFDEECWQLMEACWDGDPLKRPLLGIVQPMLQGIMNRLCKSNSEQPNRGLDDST
The experiment in a line: Inhibition of human RIPK5 using myelin basic protein as substrate at 1 uM in presence of 32P-ATP by Hotspot assay relative to control; values are per cent of control.

For assay [6], the target named is T2, Serine/threonine-protein kinase Chk1 (Homo sapiens) (UniProt O14757).
T2 sequence (whole entry): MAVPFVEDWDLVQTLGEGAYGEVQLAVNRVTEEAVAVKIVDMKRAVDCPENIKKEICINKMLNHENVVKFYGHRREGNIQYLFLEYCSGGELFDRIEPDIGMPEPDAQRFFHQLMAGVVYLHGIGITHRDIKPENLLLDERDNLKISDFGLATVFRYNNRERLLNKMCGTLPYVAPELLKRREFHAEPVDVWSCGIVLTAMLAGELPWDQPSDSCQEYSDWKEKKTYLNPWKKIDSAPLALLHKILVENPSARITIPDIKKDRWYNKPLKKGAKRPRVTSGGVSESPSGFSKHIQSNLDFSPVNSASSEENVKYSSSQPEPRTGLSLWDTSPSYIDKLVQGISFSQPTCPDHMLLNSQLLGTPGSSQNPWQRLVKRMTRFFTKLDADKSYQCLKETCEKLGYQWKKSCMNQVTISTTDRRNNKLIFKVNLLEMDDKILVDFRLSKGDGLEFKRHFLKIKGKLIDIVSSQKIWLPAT
The experiment in a line: Inhibition of human CHK1 using KKKVSRSGLYRSPSMPENLNRPR as substrate at 1 uM in presence of 32P-ATP by Hotspot assay relative to control; values are per cent of control.

The target in assay [7] is T3, NUAK family SNF1-like kinase 2 (Homo sapiens) (UniProt Q9H093).
T3 sequence (whole entry): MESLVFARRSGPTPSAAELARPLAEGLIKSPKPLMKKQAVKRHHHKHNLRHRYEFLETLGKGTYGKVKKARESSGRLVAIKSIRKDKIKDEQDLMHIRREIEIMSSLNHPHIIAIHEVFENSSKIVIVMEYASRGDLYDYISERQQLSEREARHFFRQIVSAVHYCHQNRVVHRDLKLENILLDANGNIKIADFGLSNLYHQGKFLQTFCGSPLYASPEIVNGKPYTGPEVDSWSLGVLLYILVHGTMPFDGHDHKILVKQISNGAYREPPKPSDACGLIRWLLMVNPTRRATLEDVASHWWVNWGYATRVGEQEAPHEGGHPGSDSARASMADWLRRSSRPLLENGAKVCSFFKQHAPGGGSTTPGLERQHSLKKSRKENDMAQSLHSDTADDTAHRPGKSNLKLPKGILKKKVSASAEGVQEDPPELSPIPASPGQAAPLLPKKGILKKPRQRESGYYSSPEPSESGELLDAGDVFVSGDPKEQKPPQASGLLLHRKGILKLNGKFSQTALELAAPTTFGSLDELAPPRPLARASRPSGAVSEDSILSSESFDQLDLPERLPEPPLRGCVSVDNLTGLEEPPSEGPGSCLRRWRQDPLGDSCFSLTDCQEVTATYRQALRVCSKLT
The experiment in a line: Inhibition of human SNARK/NUAK2 using KKKVSRSGLYRSPSMPENLNRPR as substrate at 1 uM in presence of 32P-ATP by Hotspot assay relative to control; values are per cent of control.

Sequence of BDNF/NT-3 growth factors receptor (Homo sapiens) (Q16620 32-822 limits assumed): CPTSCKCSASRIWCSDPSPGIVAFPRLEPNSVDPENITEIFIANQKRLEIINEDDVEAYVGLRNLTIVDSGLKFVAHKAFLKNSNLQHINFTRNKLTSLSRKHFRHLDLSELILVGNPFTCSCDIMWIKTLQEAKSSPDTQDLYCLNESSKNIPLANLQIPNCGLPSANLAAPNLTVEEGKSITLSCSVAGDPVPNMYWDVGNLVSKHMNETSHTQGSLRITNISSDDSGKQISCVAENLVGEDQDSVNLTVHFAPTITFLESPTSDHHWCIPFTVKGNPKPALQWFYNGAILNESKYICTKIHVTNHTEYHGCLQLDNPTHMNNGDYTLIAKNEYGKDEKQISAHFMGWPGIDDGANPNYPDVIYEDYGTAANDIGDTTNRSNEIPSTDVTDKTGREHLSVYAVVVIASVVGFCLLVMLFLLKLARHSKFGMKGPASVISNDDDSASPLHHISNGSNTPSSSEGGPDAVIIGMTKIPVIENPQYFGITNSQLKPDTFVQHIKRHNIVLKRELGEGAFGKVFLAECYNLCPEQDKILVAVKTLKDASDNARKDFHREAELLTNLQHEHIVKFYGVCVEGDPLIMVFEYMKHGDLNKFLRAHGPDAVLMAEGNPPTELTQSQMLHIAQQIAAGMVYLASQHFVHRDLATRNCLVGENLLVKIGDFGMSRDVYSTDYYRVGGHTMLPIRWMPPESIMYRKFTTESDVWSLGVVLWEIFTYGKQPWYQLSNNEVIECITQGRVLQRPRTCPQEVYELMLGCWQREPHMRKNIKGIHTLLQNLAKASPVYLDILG
Sequence of G protein-coupled receptor kinase 4 (Homo sapiens) (P32298 whole entry, looked up): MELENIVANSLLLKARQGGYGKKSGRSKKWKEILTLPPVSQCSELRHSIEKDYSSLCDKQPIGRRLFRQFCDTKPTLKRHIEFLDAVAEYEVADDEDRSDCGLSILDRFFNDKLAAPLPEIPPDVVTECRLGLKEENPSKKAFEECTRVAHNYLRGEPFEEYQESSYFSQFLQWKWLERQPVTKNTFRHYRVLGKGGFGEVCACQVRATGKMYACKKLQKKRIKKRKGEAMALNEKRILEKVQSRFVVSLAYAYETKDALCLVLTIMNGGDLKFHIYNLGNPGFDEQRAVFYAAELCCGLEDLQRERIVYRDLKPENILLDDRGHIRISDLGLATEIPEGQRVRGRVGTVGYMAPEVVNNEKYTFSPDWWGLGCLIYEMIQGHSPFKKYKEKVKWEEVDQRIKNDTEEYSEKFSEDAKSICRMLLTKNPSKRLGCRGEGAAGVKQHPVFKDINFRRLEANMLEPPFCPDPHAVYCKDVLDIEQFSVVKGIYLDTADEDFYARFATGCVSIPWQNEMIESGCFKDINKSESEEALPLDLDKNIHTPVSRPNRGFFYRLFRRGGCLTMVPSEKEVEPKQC

Turning to `Cc1cc(-c2cnc(N)c3c(-c4ccc5scnc5c4)csc23)n(C)n1`, the residual activity in assay [1] is 106%; in assay [2] it was 108%; in assay [3] it was 97.2%; in assay [4], 87.9%; in assay [5], 101%; in assay [6] it was 100%. Further, the residual activity in assay [7] was 95.9%.

As for `CC(C)S(=O)(=O)c1ccc2nccc(Nc3ccc4scnc4c3)c2c1`, the residual activity in assay [1] worked out at 86.7%; in assay [2], 94.9%; in assay [3] it was 100%; in assay [4] it was 98.4%; in assay [5], 106%; in assay [6], 100%. In addition, the residual activity in assay [7] was determined as 108%.

As to `CNC(=O)c1ccc2c(c1)ncn2-c1ccc(CC(=O)OC(C)(C)C)cc1`, the residual activity in assay [1] was 97.8%; in assay [2] it was 103%; in assay [3] it was 94.6%; in assay [4] it was 91.6%; in assay [5] it was 95.6%; in assay [6] it was 84.6%. In addition, the residual activity in assay [7] was found to be 89.7%.
